From patent US11932872B2, “Dual chimeric antigen receptor-t cell which can be regulated, construction method therefor and use thereof” (NANJING ANJI BIOLOGICAL TECHNOLOGY CO., LTD, priority 2017, dated 2024)
Ends that are not written are not given here.

Tests used:
[1] = system: MSLN+K562 cells (mixed 1:1 with CEA+K562); experiment: Time regulation of in vitro activity of sdCAR-T cells by exogenous switching molecules; assay type: cell-based, human; conditions: switching molecule added at 4 h, sampled every 2 h, effector:target 5:2
Protocol: This example verified that the killing activity of the sdCAR-T cells on tumor cells was subjected to time regulation by the switching molecules, and the selected target cells were MSLN single positive tumor cells and single positive tumor cells of negative control CEA. In the 14-hour test, the cytotoxicity of sdCAR-T cells was tested in real time with and without switching molecules. A total of four test groups were designed, each group had three parallel wells, and the design of test group was the same as that of Example 6.
1) Effector cells and mixed target cells (MSLN^+K562:CEA^+K562, 1:1) were co-incubated at a ratio of 5:2 in a 6-well plate, RPMI1640 (containing 10% FBS) was selected as a co-culture medium, cultured at 37° C. with 5% CO2.
2) 100 μL of cell suspension was taken every 2 h as the culturing begins at the 0 h.
3) Corresponding switching molecules were added at the 4 h.
4) Co-culturing for 10 h (that is, cell suspension was taken 6 times); after the culture, the ratio of MSLN and CEA tumor cells in each test group was detected by a flow cytometer, and then the survival rate of MSLN target cells was calculated.

[2] = system: MSLN+K562 target cells (mixed 1:1 with CEA+K562); experiment: Cytotoxicity test of sdCAR-T cells in vitro; assay type: cell-based, human; conditions: for percentage content of homologous target cells MSLN+K562 (green fluorescence): fluorescence detection, versus beginning of the test
Protocol: The cytotoxicity of sdCAR-T cells was determined according to the survival rate of target cells (MSLN^+K562). The selected target cells were equal mixed cells of MSLN and CEA. […] The survival rate of MSLN target cells in each test group was calculated according to the following formula, and then the tumor killing ability of the constructed CARs-T cells in vitro could be analyzed.
1) Effector cells and mixed target cells (MSLN^+K562:CEA^+K562, 1:1) were co-incubated at a ratio of 5:2 in a U-shaped 96-well plate, RPMI1640 (10% FBS) was selected as a co-culture medium, and corresponding switching molecule s were added.
2) Culturing at 37° C. for 22 h with 5% CO2.
3) The ratio of MSLN and CEA tumor cells in each test group was detected by a flow cytometer, and then the survival rate of MSLN target cells was calculated.

[3] = system: MSLN+K562 cells (mixed equally with CEA+K562 cells, intraperitoneal); experiment: Tumor killing test by sdCAR-T cells in vivo; design: species or system nude mice BALB/c; conditions: nude mice; for in vivo cytokine (IL-2 and IFNγ) release level / in vivo cytokine (IL-2 and IFNγ) release level compared with Conventional CAR-T cell group: abdominal cavity fluid supernatant; for in vivo cytotoxicity of sdCAR-T cells: intraperitoneal tumor cells, abdominal cavity fluid by flow cytometry
Protocol: Female nude mice BALB/c which were 6-8 weeks old were selected, MSLN^+K562 cells and CEA^+K562 cells were mixed equally and injected intraperitoneally into the nude mice, and then corresponding effector cells and switching molecules were added respectively. Refer to FIG. 19 for details of the in vivo test process. Six test groups were designed, with 6 nude mice in each group. Specific solutions are as follows:
group 1: effector cells are T cells (No CAR) and no switching molecules are added;
group 2: effector cells are the second generation of CAR-T cells (Conventional CAR) specific to MSLN, and no switching molecules are added;
group 3: effector cells are sdCAR-T cells and no switching molecules are added;
group 4: effector cells are sdCAR-T cells, and small molecule HM-3 is added;
group 5: effector cells are sdCAR-T cells and switching molecule FITC is added; and
After the test was completed, the nude mice were euthanized, and then 5 mL of pre-cooled PBS was injected into the abdominal cavities of the nude mice. After the abdominal cavities of the nude mice were rubbed many times, the abdominal cavity fluid was sucked out completely, and centrifuged at a centrifugal force of 800 g for 8 min. The cells were collected, and the percentage of the two tumor cells was measured by flow cytometry, and then the in vivo activity of sdCAR-T cells could be calculated. In addition, the above centrifuged supernatant was collected to measure the release levels of cytokines IL-2 and IFNγ respectively.

K562 tumor cells = experiment: Killing curve of K562 tumor cells by puromycin / hygromycin; assay type: cell-based; conditions: 5 consecutive days
Protocol: 1) Low-generation cell strains were resuscitated from liquid nitrogen, and subjected to conventional culture and passaged 5 times, then the cell state was adjusted to a logarithmic growth period.
2) A new 24-well plate was prepared, 50000 K562 tumor cells were inoculated per well for 7 wells in total, and 500 μL of complete culture medium (RPMI1640, 10% FBS) was added per well. The well plate was placed in an incubator at 37° C. with 5% CO2 and cultured overnight.
3) The cell well plate was taken out from the incubator, one well was left free of puromycin, and puromycin with final concentrations of 0.5, 1, 2, 4, and 8 μg/mL were added to the remaining wells respectively.
4) The well plate was placed in an incubator at 37° C. with 5% CO2 for continuous cultivation. The state of cells in the well plate was observed under a microscope every day for 5 consecutive days. And the minimum concentration that can completely kill all cells on the fifth day was taken as the puromycin concentration for subsequent stable cell strain screening.
The method is the same as that of Example 3.4. The concentration gradient of the hygromycin was set to 50, 100, 200, 400 and 800 μg/mL respectively, and the concentration of the hygromycin was finally selected to be 100 μg/mL through the determination of the killing curve.

| Compound | cytotoxicity of sdCAR-T cells after addition of switching molecule [1] | survival rate of MSLN tumor cells ([2]; effector:mixed target cells 5:2, 22 h, flow cytometry) | percentage content of homologous target cells MSLN+K562 (green fluorescence) [2] | in vivo cytokine (IL-2 and IFNγ) release level [3] | in vivo cytokine (IL-2 and IFNγ) release level compared with Conventional CAR-T cell group [3] | in vivo cytotoxicity of sdCAR-T cells [3] | minimum concentration that can completely kill all cells on the fifth day (concentration selected from the killing curve) (K562 tumor cells) | in vivo cytotoxicity of FHBM treatment group compared with FITC treatment group ([3]; sdCAR-T cells plus switching molecule) |
| --- | --- | --- | --- | --- | --- | --- | --- | --- |
| O=C1OC2(c3ccc(O)cc3Oc3cc(O)ccc32)c2ccc(N=C=S)cc21 [FITC] | significant cytotoxicity | about 30.98% | significantly lower than that at the beginning of the test | release significant cytokine levels | only half of the level | significant cytotoxicity | – | – |
| COc1ccc(C[C@H](N)C(=O)N[C@H]2[C@@H](O)[C@H](n3cnc4c(N(C)C)ncnc43)O[C@@H]2CO)cc1 [puromycin] | – | – | – | – | – | – | 1 µg/mL | – |
| FHBM: FITC and polypeptide HM-3 coupled to form a bifunctional small molecule; exogenous switching molecule for sdCAR-T cells (IVRRADRAAVPGGGGRGD; also: FITC coupled to HM-3, site not given here) | significant cytotoxicity | – | significantly lower than that at the beginning of the test | release significant cytokine levels | only half of the level | significant cytotoxicity | – | better than that of the FITC treatment group |
